Experimental data published in patent US10472341B2, “Bicyclic tetrahydrothiazepine derivatives useful for the treatment of neoplastic and/or infectious diseases” (APEIRON BIOLOGICS AG, priority 2015, dated 2019).
pEC50: −log10 of the molar value. Blank lines part the entries; values can stand above or below the compound they belong to.

What was measured:
CD8 T cells [1] = experiment: Reactivity of isolated CFSE-labeled CD8 T cells to TCR stimulation (anti-CD3/anti-CD28): cytokines, proliferation, CD25; assay type: cell-based, human; settings: for CD25 expression [% positive cells] Average / Cell Proliferation [Cell divisions/cell] Average / IFN-gamma production [ng/ml] Average / IL-2 production [ng/ml] Average / TNF-alpha production [ng/ml] Average: anti-CD3/anti-CD28
Protocol: • Buffy coat content was transferred to sterile plastic bottle and filled up to 480 ml with PBS, and distributed equally to 16×50 ml tubes (30 ml/tube) • Underlayed with ˜11 ml Lymphoprep and centrifuged 20 min (2200 rpm) • The interphase containing lymphocytes was taken off with transfer pipette, cells were washed twice with PBS and pooled to one tube to determine cell count (Coulter Diff ACT) Isolation of Immune Cell Subfractions from PBMCs by MACS • PBMCs were resuspended in MACS buffer (80 μl MACS-buffer/10^7 cells) and cells were isolated with Auto-MACS device using respective kits following manufacturer's recommendations TCR Stimulation and Measurement of T Cell Activation
Isolated T cells were plated in Xvivo medium at 1.5*10 ^5 cells per in 96 well culture plates and TCR-stimulated with anti-CD3/28 mAbs in the presence of compound as indicated. Cytokine production was determined at 24 h or 48 h following TCR stimulation in cell culture supernatants using commercially available ELISA kits (BD and eBioscience) as recommended by the manufacturer. T cell proliferation and CD25 expression (CD25-PC5 reagent purchased from Beckman Coulter) was determined by flow cytometry (Beckman-Coulter FC500) and analysed with Kaluza Software. For measurement of CD69 expression, isolated CD4 and CD8 T cells were plated in Xvivo medium at […] per in 96 well culture plates and TCR-stimulated with anti-CD3/28 mAbs in the presence of compound. CD69 expression was determined at 24 h following TCR stimulation by flow cytometry (CD4eF450, CD8APCeF780 and CD69-PC7 reagent purchased from eBioscience) and analysed with Kaluza Software.
Isolated CD8 T cells were CFSE-labeled and stimulated with anti-CD3 and anti-CD28 antibodies.

CD8 T cells [2] = experiment: CD69 expression on aCD3/aCD28 stimulated isolated human CD8 T cells (flow cytometry); assay type: cell-based; settings: T-cell, 24 h after TCR stimulation, read-out: Activity Class CD69 (CD8)
Method in brief: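 Isolated CD4 and CD8 T cells plated at 80000 cells per well in Xvivo medium and stimulated with anti-CD3/28 mAbs in presence of compound. CD69 expression measured by flow cytometry 24 h after TCR stimulation.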

OT-II cells = experiment: OT-II transfer model, intravenous administration; assay type: in vivo, mouse; settings: LPS & OVA
Protocol: • Single cell suspension of splenocytes was prepared from the spleen by rinsing cells through a sterile 70 μm filter with PBS • Cells were collected by centrifugation in an 15 ml tube, the cell pellet was resuspended in 1 ml of Erylyse buffer and incubated at room temperature for 5 minutes, tubes were filled up with PBS and cells were washed twice • Cells were counted and resuspended in the desired buffer volume for MACS-enrichment or flow cytometric analysis Isolation of CD4 T Cells from OT-II Transgenic Mice • Splenocytes were resuspended in MACS buffer ([…] MACS-buffer/10^7 cells) • CD4 T cells were isolated using the CD4 T cell isolation kit (Miltenyi) with LS-columns following manufacturer's recommendations CFSE-Labeling of T Cells • Cells were resuspended in PBS with 0.1% BSA at 1×10^7 cells/ml and CFSE-solution was added to final concentration of 2.5 μM CFSE • Incubated for 10 min at 37° C., swung each 2 min • Same volume of FCS added and incubated for 5 min at room temperature • Cells were washed twice with RMPI-10% FCS medium • Cells were counted and resuspended in PBS or medium at desired concentration OT-II Transfer • Day 0: OT-II cells were transferred in PBS (3*10^6. Cells in 100 μl PBS) by retro-orbital injection • Day 1: WT mice got OVA vaccinated (subcut. flank, 10 μg LPS, 2 μg OVA per animal) • 2 & 4 h later compounds were administrated; for oral dosing compound was used as suspension (0.5% methylcellulose in water), for i.v. dosing compound was solubilized in DMSO and diluted with PBS • Day 2: compounds were administrated twice in the morning (with 2 h time interval) • Day 3: Mice were sacrificed & splenocytes were isolated • T cell proliferation & phenotype was determined by flow cytometry • Flow cytometry-Staining (all Abs purchased from eBioscience and used as recommended by the manufacturer): B220-eF450, CD4-PE, CD25PerCPCy5.5, CD69-PC7, TCRVa2-APC, CD8-AF700, CD3-eF780; CFSE; 7-AAD • Acquisition on Beckman-Coulter Gallios, Analysis using Kaluza Software OT-I Transfer to Mice with B16-F10-OVA Tumors • Day 0: 100000 B16-F10-OVA tumor cells were inoculated subcutaneously at the flank of WT-mice • Day 7: OT-I cells were transferred in PBS (3*10^6. […]

SMILES: CCCCNC(=O)c1ccc2c(c1)N(Cc1ccc(OC(F)(F)F)cc1)C(=O)[C@@H](N)CS2(=O)=O.Cl [Example 67, (3R)-3-amino-N-butyl-1,1,4-trioxo-5-{[4-(trifluoromethoxy)phenyl]methyl}-2,3,4,5-tetrahydro-1λ^6,5-benzothiazepine-7-carboxamide hydrochloride]
CD25 expression [% positive cells] Average (CD8 T cells [1]; 0.05 μM): 61.07 % positive cells
Cell Proliferation [Cell divisions/cell] Average (CD8 T cells [1]; 0.05 μM): 1.57 Cell divisions/cell
IFN-gamma production [ng/ml] Average (CD8 T cells [1]; 0.05 μM): 0.14 ng/mL
IL-2 production [ng/ml] Average (CD8 T cells [1]; 0.05 μM): 1.17 ng/mL
TNF-alpha production [ng/ml] Average (CD8 T cells [1]; 0.05 μM): 1.09 ng/mL
CD25 expression [% positive cells] Average (CD8 T cells [1]; 0.1 μM): 64.24 % positive cells
Cell Proliferation [Cell divisions/cell] Average (CD8 T cells [1]; 0.1 μM): 1.72 Cell divisions/cell
IFN-gamma production [ng/ml] Average (CD8 T cells [1]; 0.1 μM): 0.22 ng/mL
IL-2 production [ng/ml] Average (CD8 T cells [1]; 0.1 μM): 2.32 ng/mL
TNF-alpha production [ng/ml] Average (CD8 T cells [1]; 0.1 μM): 1.55 ng/mL
CD25 expression [% positive cells] Average (CD8 T cells [1]; 0.25 μM): 68.81 % positive cells
Cell Proliferation [Cell divisions/cell] Average (CD8 T cells [1]; 0.25 μM): 1.84 Cell divisions/cell
IFN-gamma production [ng/ml] Average (CD8 T cells [1]; 0.25 μM): 0.31 ng/mL
IL-2 production [ng/ml] Average (CD8 T cells [1]; 0.25 μM): 4.01 ng/mL
TNF-alpha production [ng/ml] Average (CD8 T cells [1]; 0.25 μM): 2.16 ng/mL
CD25 expression [% positive cells] Average (CD8 T cells [1]; 0.5 μM): 67.89 % positive cells
Cell Proliferation [Cell divisions/cell] Average (CD8 T cells [1]; 0.5 μM): 1.88 Cell divisions/cell
IFN-gamma production [ng/ml] Average (CD8 T cells [1]; 0.5 μM): 0.43 ng/mL
IL-2 production [ng/ml] Average (CD8 T cells [1]; 0.5 μM): 7.64 ng/mL
TNF-alpha production [ng/ml] Average (CD8 T cells [1]; 0.5 μM): 3.13 ng/mL
CD25 expression [% positive cells] Average (CD8 T cells [1]; 1 μM): 71.00 % positive cells
Cell Proliferation [Cell divisions/cell] Average (CD8 T cells [1]; 1 μM): 1.94 Cell divisions/cell
IFN-gamma production [ng/ml] Average (CD8 T cells [1]; 1 μM): 0.61 ng/mL
IL-2 production [ng/ml] Average (CD8 T cells [1]; 1 μM): 11.30 ng/mL
TNF-alpha production [ng/ml] Average (CD8 T cells [1]; 1 μM): 4.04 ng/mL
CD25 expression [% positive cells] Average (CD8 T cells [1]; 2.5 μM): 71.35 % positive cells
Cell Proliferation [Cell divisions/cell] Average (CD8 T cells [1]; 2.5 μM): 1.93 Cell divisions/cell
IFN-gamma production [ng/ml] Average (CD8 T cells [1]; 2.5 μM): 0.79 ng/mL
IL-2 production [ng/ml] Average (CD8 T cells [1]; 2.5 μM): 16.77 ng/mL
TNF-alpha production [ng/ml] Average (CD8 T cells [1]; 2.5 μM): 5.37 ng/mL
CD25 expression [% positive cells] Average (CD8 T cells [1]; 5 μM): 71.76 % positive cells
Cell Proliferation [Cell divisions/cell] Average (CD8 T cells [1]; 5 μM): 1.91 Cell divisions/cell
IFN-gamma production [ng/ml] Average (CD8 T cells [1]; 5 μM): 0.91 ng/mL
IL-2 production [ng/ml] Average (CD8 T cells [1]; 5 μM): 17.30 ng/mL
TNF-alpha production [ng/ml] Average (CD8 T cells [1]; 5 μM): 6.68 ng/mL
CD25 expression [% positive cells] Average (CD8 T cells [1]; 10 μM): 71.90 % positive cells
Cell Proliferation [Cell divisions/cell] Average (CD8 T cells [1]; 10 μM): 1.83 Cell divisions/cell
IFN-gamma production [ng/ml] Average (CD8 T cells [1]; 10 μM): 1.15 ng/mL
IL-2 production [ng/ml] Average (CD8 T cells [1]; 10 μM): 19.63 ng/mL
TNF-alpha production [ng/ml] Average (CD8 T cells [1]; 10 μM): 7.50 ng/mL
CD25 expression [% positive cells] Average (CD8 T cells [1]; 20 μM): 69.70 % positive cells
Cell Proliferation [Cell divisions/cell] Average (CD8 T cells [1]; 20 μM): 1.68 Cell divisions/cell
IFN-gamma production [ng/ml] Average (CD8 T cells [1]; 20 μM): 1.32 ng/mL
IL-2 production [ng/ml] Average (CD8 T cells [1]; 20 μM): 19.92 ng/mL
TNF-alpha production [ng/ml] Average (CD8 T cells [1]; 20 μM): 7.13 ng/mL
production of IL-2, IFN-gamma and TNF-alpha, CD25 expression and T cell proliferation (CD8 T cells [1]; anti-CD3 and anti-CD28): strongly enhanced

pEC50 (CD8 T cells [2]): > 5.80
SMILES: Cl.N[C@H]1CS(=O)(=O)c2cc(F)c(C(=O)NCCCC(F)(F)F)cc2N(Cc2ccc(Cl)cc2)C1=O [Example 70, (3R)-3-amino-5-[(4-chlorophenyl)methyl]-8-fluoro-1,1,4-trioxo-N-(4,4,4-trifluoro-butyl)-2,3,4,5-tetrahydro-1λ^6,5-benzothiazepine-7-carboxamide hydrochloride]
Proliferated OT-II cells, average (OT-II cells; 1 mg/kg): 18.70 % gated
CD69+ cells, B cells of recipient animal (OT-II cells; 10 mg/kg): 8.62 % gated
CD69+ cells, CD8 T cells of recipient animal (OT-II cells; 10 mg/kg): 7.08 % gated
CD69+ cells, WT CD4 T cells of recipient animal (OT-II cells; 10 mg/kg): 12.26 % gated
CD69+ cells, transferred OT-II cells (OT-II cells; 10 mg/kg): 59.47 % gated
